# Laboratory results from PubChem BioAssay AID212 (DTP/NCI, 2004).
# “And” between values parts separate entries of the source, which are not always exact repeats. Identical values can stand only once. Inconclusive results are not listed.
# System: BDF1 mice, colon carcinoma 38 sc, T/C %
# Assay: NCI In Vivo Anticancer Drug Screen. Data for tumor model Colon Carcinoma 38 (subcutaneous) in B6D2F1 (BDF1) mice
# Conditions: endpoint: median tumor weight (est.), higher = larger tumour
# Method in brief: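 T/C readout: treated group (T) measurement over vehicle control group (C) measurement. Endpoint is survival or tumor size in mice bearing a transplanted tumor.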
# [1] = dose: 6.25 mg/kg/injection, schedule: Q07DX002 (ip), vehicle: Klucel (hydroxypropylcellulose) (HPC)
# [2] = dose: 12.5 mg/kg/injection, schedule: Q07DX002 (ip), vehicle: Klucel (hydroxypropylcellulose) (HPC)
# [3] = dose: 25.0 mg/kg/injection, schedule: Q07DX002 (ip), vehicle: Klucel (hydroxypropylcellulose) (HPC)
# [4] = dose: 6.25 mg/kg/injection, schedule: Q07DX002 (ip), vehicle: saline
# [5] = dose: 25.0 mg/kg/injection, schedule: Q07DX002 (ip), vehicle: saline
# [6] = dose: 100.0 mg/kg/injection, schedule: Q07DX002 (ip), vehicle: saline
# [7] = dose: 10.0 mg/kg/injection, schedule: Q07DX002 (ip), vehicle: saline with Tween-80
# [8] = dose: 20.0 mg/kg/injection, schedule: Q07DX002 (ip), vehicle: saline with Tween-80
# [9] = dose: 25.0 mg/kg/injection, schedule: Q07DX002 (ip), vehicle: saline with Tween-80
# [10] = dose: 50.0 mg/kg/injection, schedule: Q07DX002 (ip), vehicle: saline with Tween-80
# [11] = dose: 1.56 mg/kg/injection, schedule: Q07DX002 (ip), vehicle: saline
# [12] = dose: 12.5 mg/kg/injection, schedule: Q07DX002 (ip), vehicle: saline
# [13] = dose: 50.0 mg/kg/injection, schedule: Q07DX002 (ip), vehicle: saline
# [14] = dose: 200.0 mg/kg/injection, schedule: Q07DX002 (ip), vehicle: saline
# [15] = dose: 50.0 mg/kg/injection, schedule: Q07DX002 (ip), vehicle: distilled water + Tween-80
smiles,measurement,setting,value
C=C1C(=O)O[C@H]2/C=C(/C)C3=CC(=O)[C@@](C)(C[C@@H](OC(=O)/C(C)=C\C)C12)O3 (stereo partly specified),T/C,"dose: 3.12 mg/kg/injection, schedule: Q07DX002 (ip), vehicle: Klucel (hydroxypropylcellulose) (HPC)",63 % of control
same,T/C,[1],95 % of control
same,T/C,[2],58 % of control
same,T/C,[3],79 % of control
Cc1cc(NCCCCCCNc2cc(C)nc3cc(N(C)C)ccc23)c2ccc(N(C)C)cc2n1,T/C,"dose: 6.0 mg/kg/injection, schedule: Q07DX002 (ip), vehicle: distilled water + Tween-80 + alcohol",107 % of control
same,T/C,"dose: 12.5 mg/kg/injection, schedule: Q07DX002 (ip), vehicle: distilled water + Tween-80 + alcohol",99 % of control
same,T/C,"dose: 25.0 mg/kg/injection, schedule: Q07DX002 (ip), vehicle: distilled water + Tween-80 + alcohol",95 % of control
same,T/C,"dose: 50.0 mg/kg/injection, schedule: Q07DX002 (ip), vehicle: distilled water + Tween-80 + alcohol",105 % of control
same,T/C,"dose: 100.0 mg/kg/injection, schedule: Q07DX002 (ip), vehicle: distilled water + Tween-80 + alcohol",90 % of control
NC(=O)c1ncn2c(=O)n(CCCl)nnc12,T/C,"dose: 6.0 mg/kg/injection, schedule: Q07DX002 (ip), vehicle: saline",110 % of control
same,T/C,[1],43 % of control and 65 % of control
same,T/C,[4],47 % of control
same,T/C,"dose: 12.0 mg/kg/injection, schedule: Q07DX002 (ip), vehicle: saline",51 % of control
same,T/C,[2],22 % of control and 45 % of control
same,T/C,[3],21 % of control and 36 % of control
same,T/C,[5],55 % of control and 59 % of control
same,T/C,"dose: 50.0 mg/kg/injection, schedule: Q07DX002 (ip), vehicle: Klucel (hydroxypropylcellulose) (HPC)",2 % of control
same,T/C,[6],2 % of control
C[n+]1cccc(NC(=O)c2ccc(NC(=O)C34CCC(C(=O)Nc5ccc(C(=O)Nc6ccc[n+](C)c6)cc5)(CC3)CC4)cc2)c1,T/C,[7],60 % of control
same,T/C,[8],57 % of control
same,T/C,"dose: 22.5 mg/kg/injection, schedule: Q07DX002 (ip), vehicle: saline with Tween-80",93 % of control
same,T/C,"dose: 40.0 mg/kg/injection, schedule: Q07DX002 (ip), vehicle: saline with Tween-80",28 % of control
same,T/C,"dose: 45.0 mg/kg/injection, schedule: Q07DX002 (ip), vehicle: saline with Tween-80",71 % of control
same,T/C,"dose: 80.0 mg/kg/injection, schedule: Q07DX002 (ip), vehicle: saline with Tween-80",20 % of control
same,T/C,"dose: 90.0 mg/kg/injection, schedule: Q07DX002 (ip), vehicle: saline with Tween-80",109 % of control
O=NN(CCCl)C(=O)NCCCl,T/C,"dose: 1.0 mg/kg/injection, schedule: Q07DX002 (ip), vehicle: saline with Tween-80",92 % of control
same,T/C,"dose: 2.5 mg/kg/injection, schedule: Q07DX002 (ip), vehicle: saline with Tween-80",66 % of control
same,T/C,"dose: 3.0 mg/kg/injection, schedule: Q07DX002 (ip), vehicle: saline + alcohol",96 % of control
same,T/C,"dose: 4.0 mg/kg/injection, schedule: Q07DX002 (ip), vehicle: saline with Tween-80",82 % of control
same,T/C,"dose: 4.0 mg/kg/injection, schedule: Q07DX003 (ip), vehicle: saline with Tween-80",97 % of control and 98 % of control
same,T/C,"dose: 5.0 mg/kg/injection, schedule: Q07DX002 (ip), vehicle: saline with Tween-80",82 % of control
same,T/C,"dose: 6.0 mg/kg/injection, schedule: Q07DX002 (ip), vehicle: saline + alcohol",88 % of control
same,T/C,"dose: 8.0 mg/kg/injection, schedule: Q07DX003 (ip), vehicle: saline with Tween-80",71 % of control and 87 % of control
same,T/C,[7],43 % of control
same,T/C,"dose: 12.0 mg/kg/injection, schedule: Q07DX002 (ip), vehicle: saline + alcohol",59 % of control
same,T/C,[8],15 % of control
same,T/C,"dose: 24.0 mg/kg/injection, schedule: Q07DX002 (ip), vehicle: saline + alcohol",37 % of control
same,T/C,"dose: 32.0 mg/kg/injection, schedule: Q07DX003 (ip), vehicle: saline with Tween-80",24 % of control
COc1cccc(C2NC(=O)c3c(n[nH]c3N)S2)c1O (stereo unspecified),T/C,[9],102 % of control
same,T/C,[10],106 % of control
same,T/C,"dose: 100.0 mg/kg/injection, schedule: Q07DX002 (ip), vehicle: saline with Tween-80",90 % of control
same,T/C,"dose: 200.0 mg/kg/injection, schedule: Q07DX002 (ip), vehicle: saline with Tween-80",94 % of control
same,T/C,"dose: 400.0 mg/kg/injection, schedule: Q07DX002 (ip), vehicle: saline with Tween-80",59 % of control
ClCC[Se](Cl)(Cl)c1ccccc1,T/C,[11],84 % of control
same,T/C,"dose: 1.56 mg/kg/injection, schedule: Q07DX002 (ip), vehicle: suspension in saline",83 % of control
same,T/C,"dose: 3.12 mg/kg/injection, schedule: Q07DX002 (ip), vehicle: saline",96 % of control
same,T/C,[4],105 % of control
same,T/C,"dose: 6.25 mg/kg/injection, schedule: Q07DX002 (ip), vehicle: suspension in saline",88 % of control
same,T/C,[12],90 % of control
[CH3][Sn]([CH3])([Cl])[S]CCN,T/C,[12],71 % of control
same,T/C,[5],47 % of control
same,T/C,[13],90 % of control
C=CCOCC1CO1 (stereo unspecified),T/C,[12],66 % of control
same,T/C,[6],85 % of control
same,T/C,[14],122 % of control
CC(C)NC(=O)OCc1c(COC(=O)NC(C)C)c(-c2ccc(Cl)c(Cl)c2)n2c1CCC2,T/C,"dose: 12.5 mg/kg/injection, schedule: Q07DX002 (ip), vehicle: distilled water + Tween-80",82 % of control and 99 % of control
same,T/C,"dose: 25.0 mg/kg/injection, schedule: Q07DX002 (ip), vehicle: distilled water + Tween-80",114 % of control and 94 % of control and 107 % of control
same,T/C,[15],53 % of control and 67 % of control
CC1=C(C)C(=O)O[C@@H]([C@](C)(O)[C@]2(O)CC[C@@]3(O)[C@@H]4C[C@H]5O[C@]56CC=CC(=O)[C@]6(C)[C@H]4CC[C@]23C)C1,T/C,[12],110 % of control
same,T/C,[5],96 % of control
same,T/C,"dose: 28.1 mg/kg/injection, schedule: Q07DX002 (ip), vehicle: saline",162 % of control
same,T/C,"dose: 56.2 mg/kg/injection, schedule: Q07DX002 (ip), vehicle: saline",90 % of control
same,T/C,[6],117 % of control
same,T/C,"dose: 112.5 mg/kg/injection, schedule: Q07DX002 (ip), vehicle: saline",160 % of control
same,T/C,[14],83 % of control
same,T/C,"dose: 225.0 mg/kg/injection, schedule: Q07DX002 (ip), vehicle: saline",70 % of control
CS(=O)(=O)OCCN(CCOS(C)(=O)=O)c1ccc(C=O)cc1,T/C,"dose: 6.25 mg/kg/injection, schedule: Q07DX002 (ip), vehicle: saline with Tween-80",113 % of control
same,T/C,"dose: 12.5 mg/kg/injection, schedule: Q07DX002 (ip), vehicle: saline with Tween-80",29 % of control
same,T/C,[9],57 % of control
same,T/C,[10],60 % of control
NC1CCCCC1N.O=C1C=CC(=C(c2ccc(O)cc2)c2ccccc2S(=O)(=O)[O-])C=C1.O=[N+]([O-])[O-].[Pt+4],T/C,[11],14 % of control
CCc1ncnc2cc(OCC3CO3)c(OC)cc12 (stereo unspecified),T/C,[5],93 % of control
same,T/C,[13],47 % of control
Nc1cc(Cl)c2[nH]cnc2n1,T/C,"dose: 12.5 mg/kg/injection, schedule: Q07DX002 (ip), vehicle: water",86 % of control
same,T/C,"dose: 25.0 mg/kg/injection, schedule: Q07DX002 (ip), vehicle: water",119 % of control
same,T/C,[15],99 % of control
same,T/C,"dose: 50.0 mg/kg/injection, schedule: Q07DX002 (ip), vehicle: water",82 % of control
same,T/C,"dose: 100.0 mg/kg/injection, schedule: Q07DX002 (ip), vehicle: distilled water + Tween-80",76 % of control
same,T/C,"dose: 100.0 mg/kg/injection, schedule: Q07DX002 (ip), vehicle: water",101 % of control
same,T/C,"dose: 200.0 mg/kg/injection, schedule: Q07DX002 (ip), vehicle: distilled water + Tween-80",108 % of control
same,T/C,"dose: 200.0 mg/kg/injection, schedule: Q07DX002 (ip), vehicle: water",81 % of control
same,T/C,"dose: 400.0 mg/kg/injection, schedule: Q07DX002 (ip), vehicle: water",81 % of control
COC1C(OC(=O)/C=C/C=C/C=C/C=C/C(=O)O)CCC2(CO2)C1C1(C)OC1CC=C(C)C (stereo unspecified),T/C,"dose: 25.0 mg/kg/injection, schedule: Q07DX002 (ip), vehicle: suspension in saline",101 % of control
same,T/C,"dose: 50.0 mg/kg/injection, schedule: Q07DX002 (ip), vehicle: suspension in saline",208 % of control
same,T/C,"dose: 200.0 mg/kg/injection, schedule: Q07DX002 (ip), vehicle: suspension in saline",115 % of control
N=C1CCCS1,T/C,[14],101 % of control
